The text below walks through data of PMC8066341, “Chemical Profiles, Anticancer, and Anti-Aging Activities of Essential Oils of Pluchea dioscoridis (L.) DC. and Erigeron bonariensis L” (Plants, 2021).

Values after ≈ are worked out from the molar mass of the structure shown.

Experiment [1] concerns the target T1, Collagenase from Clostridium histolyticum (ChC).
T1 construct: gene colG
Kind of experiment: FALGPA hydrolysis, microplate absorbance. Conditions: 50 mM tricine pH 7.5, 400 mM NaCl, 10 mM CaCl2; 15 min preincubation; FALGPA substrate. It counts as biochemical, Hathewaya histolytica.

Experiment [2] concerns the target T2, Porcine pancreatic elastase (Sus scrofa, UniProt P00772).
T2 construct: gene CELA1; native enzyme from pancreas (commercial)
The experiment in a line: N-succinyl-Ala-Ala-Ala-p-nitroanilide hydrolysis, absorbance […] nm. It counts as biochemical.

The target of experiment [3] is T3, mushroom tyrosinase.
T3 construct: gene PPO1
Kind of experiment: dopachrome formation, absorbance […] nm. The format is biochemical. Particulars: L-tyrosine substrate (0.85 mM solution); phosphate pH 6.8; 15 min preincubation at 25 °C.

T2 sequence (P00772 27-266): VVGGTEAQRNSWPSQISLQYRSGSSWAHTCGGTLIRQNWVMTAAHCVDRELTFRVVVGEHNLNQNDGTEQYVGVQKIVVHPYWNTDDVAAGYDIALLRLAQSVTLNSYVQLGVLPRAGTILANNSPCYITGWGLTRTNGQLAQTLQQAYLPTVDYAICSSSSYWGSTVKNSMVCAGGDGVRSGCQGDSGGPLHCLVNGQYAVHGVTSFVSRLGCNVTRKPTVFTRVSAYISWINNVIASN

As to `O=C(O[C@@H]1Cc2c(O)cc(O)cc2O[C@@H]1c1cc(O)c(O)c(O)c1)c1cc(O)c(O)c(O)c1` [epigallocatechin gallate], the 50% inhibitory concentration (IC50) was 1.56 µg/mL (≈ 3.4 µM) in experiment [1], 22.4 µM in experiment [2] and 14.37 µg/mL (≈ 31.3 µM) in experiment [3].
